Experimental data taken from patent US10201586B2 (dated 2019).
Where two headings read alike, the source gives them in different places. Where a SMILES comes first, the peptide text is derived from it. Bridges are numbered along the chain shown (N, C = ends). [ ]: non-standard residue; d: D form. The star is where a group is joined. X2 = NCCCC[C@H](NC(=O)CCC(=O)NCCCOCCOCCOCCCN*)C(=O)N[C@@H](CCCCN)C(=O)N[C@@H](CCCCNC(=O)CCCC[C@@H]1SC[C@@H]2NC(=O)N[C@@H]21)C(N)=O; NMeF = CN[C@@H](Cc1ccccc1)C(=O)O; β3hD = NC(CC(=O)O)CC(=O)O

Legend:
[1] = tested on: thrombin generation in FVIII- or FIX-deficient or FVIII-inhibited plasma; assay: plasma-based thrombin generation assay (calibrated automated thrombography); type: biochemical, human
TFPI [2] = molecular target: T1, TFPI (Homo sapiens, UniProt P10646); assay: Extrinsic Tenase Inhibition by TFPI | % Inhibit (2.5µM); details: read-out: Extrinsic Tenase Inhibition by TFPI | % Inhibit ([…])
Target sequence in this assay (P10646 29-304 limits assumed): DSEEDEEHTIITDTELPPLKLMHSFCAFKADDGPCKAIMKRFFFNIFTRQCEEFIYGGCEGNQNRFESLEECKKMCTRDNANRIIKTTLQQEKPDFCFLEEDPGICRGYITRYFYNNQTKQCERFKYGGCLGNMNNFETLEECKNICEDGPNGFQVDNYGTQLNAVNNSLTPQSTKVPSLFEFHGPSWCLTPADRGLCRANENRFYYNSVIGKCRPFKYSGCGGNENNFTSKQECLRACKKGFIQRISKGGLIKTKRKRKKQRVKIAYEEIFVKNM

human TFPI-1 = molecular target: T2, human TFPI-1 (Homo sapiens, UniProt P10646); assay: BIAcore surface plasmon resonance assay; type: binding
T2 construct: human TFPI-1 (residues 29-282 fused at the C-terminus to a 10 His-tag); purchased R&D Systems 2974-PI
T2 sequence (P10646 29-282): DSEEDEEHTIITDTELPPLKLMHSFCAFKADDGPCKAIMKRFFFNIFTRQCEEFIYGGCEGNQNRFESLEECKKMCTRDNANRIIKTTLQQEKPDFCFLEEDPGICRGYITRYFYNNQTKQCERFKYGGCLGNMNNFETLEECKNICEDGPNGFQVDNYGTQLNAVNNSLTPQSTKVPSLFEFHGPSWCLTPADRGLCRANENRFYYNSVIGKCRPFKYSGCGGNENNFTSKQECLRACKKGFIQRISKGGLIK

TFPI [3] = molecular target: T1, TFPI; assay: % Inhibition @ 2.5µM; details: read-out: % Inhibition @ […]
Target sequence in this assay (P10646 29-304 limits assumed): as the sequence (P10646 29-304 limits assumed) above

TFPI [4] = molecular target: T1, TFPI; assay: IC50 Mean (nM]
Target sequence in this assay (P10646 29-304 limits assumed): as above

TFPI [5] = molecular target: T1, TFPI; assay: Extrinsic Tenase Inhibition by TFPI | EC50 (µM)
Target sequence in this assay (P10646 29-304 limits assumed): as above

TFPI [6] = molecular target: T1, TFPI; assay: Progress Curves of Inhibition of FXa | EC50 (µM)
Target sequence in this assay (P10646 29-304 limits assumed): as above

TFPI [7] = molecular target: T1, TFPI; assay: KD (M)
Target sequence in this assay (P10646 29-304 limits assumed): as above

TFPI [8] = molecular target: T1, TFPI; assay: koff (1/s); details: read-out: koff (1/s)
TFPI [9] = molecular target: T1, TFPI; assay: BiaCore | kon (1/Ms); details: read-out: BiaCore | kon (1/Ms)
TFPI [10] = molecular target: T1, TFPI; assay: Extrinsic Tenase Inhibition assay | EC50 (µM)
[11] = molecular target: Tissue Factor Pathway Inhibitor (TFPI) (Homo sapiens, UniProt P10646); assay: Progress Curves of Inhibition of FXa | % Inhibit (2.5µM)
TFPI [12] = molecular target: T1, TFPI; assay: Extrinsic Tenase Inhibition by TFPI | % Inhibit (2.5µM)
TFPI [13] = molecular target: T1, TFPI; assay: as above; remark: listed apart in the source
TFPI [14] = molecular target: T1, TFPI; assay: % Inhibition @ 2.5µM
TFPI [15] = molecular target: T1, TFPI; assay: % Inhibition @ 2.5µM; remark: listed apart in the source
TFPI [16] = molecular target: T1, TFPI; assay: Extrinsic Tenase Inhibition assay | % Inhibition @ 2.5µM
TFPI [17] = molecular target: T1, TFPI; assay: as above; remark: listed apart in the source
human plasma = details: up to 24 hour
TFPI [18] = molecular target: T1, TFPI; assay: Progress Curves of Inhibition of FXa | % Inhibit (2.5µM)
TFPI [19] = molecular target: T1, TFPI; assay: Extrinsic Tenase Inhibition by TFPI | % Inhibit (2.5µM); remark: listed apart in the source
TFPI [20] = molecular target: T1, TFPI; assay: % Inhibition @ 2.5µM; remark: listed apart in the source

## CC(=O)N[C@@H](CO)C(=O)NCC(=O)N[C@H](C(=O)NCC(=O)N[C@@H](CCCNC(=N)N)C(=O)N[C@@H](CC(C)C)C(=O)N[C@@H](CCC(N)=O)C(=O)N[C@H](C(=O)N[C@@H](C)C(=O)N[C@@H](Cc1ccccc1)C(=O)N[C@@H](CCC(N)=O)C(=O)N[C@@H](CO)C(=O)N[C@@H](CCCCN)C(=O)N[C@@H](CCCCN)C(=O)N[C@@H](CC(N)=O)C(=O)N[C@H](C(=O)N[C@@H](Cc1ccccc1)C(=O)N[C@H](C(=O)N[C@@H](Cc1ccccc1)C(=O)NCC(=O)N[C@@H](Cc1ccc(O)cc1)C(=O)N[C@@H](CC(C)C)C(=O)N[C@@H](Cc1ccccc1)C(=O)N[C@@H](CCC(=O)O)C(=O)N[C@@H](CCCNC(=N)N)C(=O)N[C@@H](CC(C)C)C(=O)N[C@@H](CCCNC(=N)N)C(=O)N[C@@H](C)C(=O)N[C@@H](CCCCN)C(=O)N[C@@H](CC(C)C)C(=O)N[C@H](C(=O)N[C@@H](CO)C(N)=O)[C@@H](C)O)C(C)C)C(C)C)C(C)C)C(C)C [JBT0047] (Ac-SGVGRLQVAFQSKKNVFVFGYLFERLRAKLTS-NH2)
[1]
  FVIII-equivalent activity (mU/ml) in Hem A plasma @ 1 μM peptide: 45 mU/ml

## CC[C@H](C)[C@H](NC(=O)[C@H](CC(=O)O)NC(=O)[C@@H]1CCCN1C(=O)[C@H](Cc1c[nH]c2ccccc12)NC(=O)[C@H](CCSC)NC(=O)[C@@H](NC(=O)[C@H](Cc1c[nH]c2ccccc12)NC(=O)[C@H](Cc1ccccc1)NC(=O)[C@H](Cc1ccc(O)cc1)NC(=O)[C@H](CCCNC(=N)N)NC(=O)[C@@H]1CCCN1C(=O)[C@H](Cc1c[nH]cn1)NC(=O)[C@@H](NC(=O)[C@H](CCC(N)=O)NC(=O)[C@H](Cc1c[nH]c2ccccc12)NC(=O)[C@@H](NC(=O)CNC(=O)[C@H](CO)NC(=O)[C@H](CCCCN)NC(=O)[C@H](CCCCN)NC(C)=O)C(C)C)[C@@H](C)O)[C@@H](C)O)C(=O)N[C@@H](CCCCN)C(=O)NCC(=O)N[C@@H](CCC(=O)O)C(=O)N[C@H](C(=O)N[C@H](C(=O)N[C@H](C(=O)N[C@@H](CC(C)C)C(=O)N[C@@H](Cc1ccccc1)C(=O)NCC(=O)N[C@H](C(=O)N[C@@H](CO)C(=O)NCCCOCCOCCOCCCNC(=O)CCC(=O)N[C@@H](CCCCN)C(=O)N[C@@H](CCCCN)C(=O)N[C@@H](CCCCNC(=O)CCCC[C@@H]1SC[C@@H]2NC(=O)N[C@@H]21)C(N)=O)[C@@H](C)O)C(C)C)[C@@H](C)CC)C(C)C [JBT0103] (Ac-KKSGVWQTHPRYFWTMWPDIKGEVIVLFGTS-X2)
TFPI [2]
  inhibition at […]: 21%

## CSCC[C@@H]1NC(=O)CNC(=O)[C@@H](NC(=O)[C@H](Cc2ccccc2)NC(=O)[C@H](Cc2c[nH]c3ccccc23)NC(=O)[C@H](CCCCN)NC(=O)[C@H](Cc2ccc(O)cc2)NC(=O)[C@H](CCCNC(=N)N)NC(=O)[C@H](CO)NC(=O)[C@H](C)NC(=O)CNC(=O)[C@H](CO)NC(C)=O)CSSC[C@@H](C(=O)N[C@H](C(=O)N[C@@H](Cc2c[nH]c3ccccc23)C(=O)N[C@H](C(=O)N[C@@H](CCCCN)C(=O)N[C@@H](Cc2ccccc2)C(=O)N[C@@H](CCCNC(=N)N)C(=O)N[C@@H](Cc2ccc(O)cc2)C(=O)N[C@@H](CC(=O)O)C(=O)N[C@H](C(=O)N[C@@H](CO)C(N)=O)[C@@H](C)O)C(C)C)C(C)C)NC(=O)[C@H](CO)NC(=O)[C@H](CCSC)NC(=O)[C@H]([C@@H](C)O)NC(=O)CNC(=O)[C@H](CCCCN)NC(=O)[C@H](CCSC)NC(=O)[C@H](CC(=O)O)NC(=O)[C@H](CCCNC(=N)N)NC1=O [JBT0120]
[1]; FIGS. 11A and 11B
  peak thrombin and peak time: improved peak thrombin and peak time, dose dependently

## CC(=O)N[C@@H](Cc1ccccc1)C(=O)N[C@@H](CCC(N)=O)C(=O)N[C@@H](CO)C(=O)N[C@@H](CCCCN)C(=O)N[C@@H](CC(N)=O)C(=O)N[C@@H](CC(N)=O)C(=O)N[C@H](C(=O)N[C@@H](Cc1ccccc1)C(=O)N[C@H](C(=O)N[C@@H](Cc1ccccc1)C(=O)NCC(=O)N[C@@H](Cc1ccc(O)cc1)C(=O)N[C@@H](Cc1ccccc1)C(=O)N[C@@H](CCC(=O)O)C(=O)N[C@@H](CCCNC(=N)N)C(=O)N[C@@H](CC(C)C)C(=O)N[C@@H](CCCNC(=N)N)C(=O)N[C@@H](C)C(=O)N[C@@H](CCCCN)C(=O)N[C@@H](CC(C)C)C(N)=O)C(C)C)C(C)C [JBT0297] (Ac-FQSKNNVFVFGYFERLRAKL-NH2)
Human TFPI-1
  koff: 0.014 s⁻¹
  kon: 500000 M⁻¹ s⁻¹
TFPI [3]
  inhibition at […]: 59%
TFPI [4]
  IC50: 63 nM

## CSCC[C@@H]1NC(=O)CNC(=O)[C@@H](NC(=O)[C@H](Cc2ccccc2)NC(=O)[C@H](Cc2c[nH]c3ccccc23)NC(=O)[C@H](CCCCN)NC(=O)[C@H](Cc2ccc(O)cc2)NC(=O)[C@H](CCCNC(=N)N)NC(=O)[C@H](CO)NC(=O)[C@H](C)NC(=O)CNC(=O)[C@H](CO)NC(C)=O)CSSC[C@@H](C(=O)N[C@H](C(=O)N[C@@H](Cc2c[nH]c3ccccc23)C(=O)N[C@H](C(=O)N[C@@H](CCCCN)C(N)=O)C(C)C)C(C)C)NC(=O)[C@H](CO)NC(=O)[C@H](CCSC)NC(=O)[C@H]([C@@H](C)O)NC(=O)CNC(=O)[C@H](CCCCN)NC(=O)[C@H](CCSC)NC(=O)[C@H](CC(=O)O)NC(=O)[C@H](CCCNC(=N)N)NC1=O [JBT0320] (Ac-SGASRYKWFCGMRDMKGTMSCVWVK-NH2; disulfide 10-21)
TFPI [5]
  EC50: 6400 nM
TFPI [6]
  EC50: 18800 nM
TFPI [7]
  Kd: 238 nM
TFPI [8]
  koff: 0.0425 s⁻¹
TFPI [9]
  kon: 178000 M⁻¹ s⁻¹

## CC(=O)N(C)[C@@H](Cc1ccccc1)C(=O)N[C@@H](CCC(N)=O)C(=O)N[C@@H](CO)C(=O)N[C@@H](CCCCN)C(=O)NCC(=O)N[C@@H](CC(N)=O)C(=O)N[C@H](C(=O)N[C@@H](Cc1ccccc1)C(=O)N[C@H](C(=O)N[C@@H](Cc1ccccc1)C(=O)NCC(=O)N[C@@H](Cc1ccc(O)cc1)C(=O)N[C@@H](Cc1ccccc1)C(=O)N[C@@H](CCC(=O)O)C(=O)N[C@@H](CCCNC(=N)N)C(=O)N[C@@H](CC(C)C)C(=O)N[C@@H](CCCNC(=N)N)C(=O)N[C@@H](C)C(=O)N[C@@H](CCCCN)C(=O)N[C@@H](CC(C)C)C(N)=O)C(C)C)C(C)C [JBT0497] (Ac-[NMeF]QSKGNVFVFGYFERLRAKL-NH2)
TFPI [10]
  EC50: 1130 nM

## Ac- KKPLAVQLHVSKRSKEMALARLYYKTSKK- NH2 (SEQ ID NO: 2129) (Ac-KKPLAVQLHVSKRSKEMALARLYYKTSKK-NH2) [JBT0229]
[11]
  Progress Curves of Inhibition of FXa | % Inhibit ([…]): 0%
TFPI [12]
  Extrinsic Tenase Inhibition by TFPI | % Inhibit ([…]): 0%

## Ac-ASFPLAVQLHVSKRSKE-NH2 (SEQ ID NO: 2313) [JBT0363]
TFPI [13]
  Extrinsic Tenase Inhibition by TFPI | % Inhibit ([…]): 9%
TFPI [14]
  % Inhibition @ […]: 0%

## Ac-FQSKGNVFVFGYF-bE-RLRAKL-NH2 (SEQ ID NO: 272) (Ac-FQSKGNVFVFGYF[β3hD]RLRAKL-NH2; SMILES CC(=O)N[C@@H](Cc1ccccc1)C(=O)N[C@@H](CCC(N)=O)C(=O)N[C@@H](CO)C(=O)N[C@@H](CCCCN)C(=O)NCC(=O)N[C@@H](CC(N)=O)C(=O)N[C@H](C(=O)N[C@@H](Cc1ccccc1)C(=O)N[C@H](C(=O)N[C@@H](Cc1ccccc1)C(=O)NCC(=O)N[C@@H](Cc1ccc(O)cc1)C(=O)N[C@@H](Cc1ccccc1)C(=O)N[C@@H](CC(=O)O)CC(=O)N[C@@H](CCCNC(=N)N)C(=O)N[C@@H](CC(C)C)C(=O)N[C@@H](CCCNC(=N)N)C(=O)N[C@@H](C)C(=O)N[C@@H](CCCCN)C(=O)N[C@@H](CC(C)C)C(N)=O)C(C)C)C(C)C) [JBT0528]
TFPI [15]
  % Inhibition @ […]: 25%
TFPI [16]
  Extrinsic Tenase Inhibition assay | % Inhibition @ […]: 8%

## Ac-FQSKGNVFVFGYFERLR-bAla-KL-NH2 (SEQ ID NO: 423) [JBT0532]
TFPI [15]
  % Inhibition @ […]: 14%
TFPI [17]
  Extrinsic Tenase Inhibition assay | % Inhibition @ […]: 0%

## Ac-FQSKpNVHVDGYFERL-Aib-AKL-NH2
Human plasma
  cleaved bond: Val9-Asp10

## Ac-SRYKWFSGMRDMKGTMSSVWVKF-NH2 (SEQ ID NO: 1229) [JBT0417]
TFPI [18]
  Progress Curves of Inhibition of FXa | % Inhibit ([…]): 2%
TFPI [19]
  Extrinsic Tenase Inhibition by TFPI | % Inhibit ([…]): 11%
TFPI [20]
  % Inhibition @ […]: 0%
